Publication PMC8621456, “New Investigations with Lupane Type A-Ring Azepane Triterpenoids for Antimycobacterial Drug Candidate Design” (International Journal of Molecular Sciences, 2021)
Converted amounts (≈) assume the structure as drawn. Where two headings read alike, the source gives them in different places. Marks after values point to notes of the source that are not given here.

Key:
[1] = system: M. tuberculosis strain H37Rv; assay type: cell-based, Mycobacterium tuberculosis; settings: 2× the MIC
H37Rv (gyrA^D94K) [2] = settings: cited from earlier work
H37Rv (rpoB^S450L) [3] = settings: cited from earlier work
H37Rv (katG^del) = experiment: microbe, parasite or virus in culture; assay type: cell-based; settings: Mycobacterium tuberculosis, isoniazid mono-resistant strain
H37Rv (gyrA^D94K) [4] = assay type: cell-based, Mycobacterium tuberculosis
H37Rv (rpoB^S450L) [5] = assay type: cell-based, Mycobacterium tuberculosis

C=C(C)[C@@H]1CC[C@]2(CO)CC[C@]3(C)[C@H](CC[C@@H]4[C@@]5(C)CCCNC(C)(C)[C@@H]5CC[C@]43C)[C@@H]12 [Compound 1, azepanobetulin]
FoR (order of magnitude stated in text) [1]: 10^−6 | MIC (µM) H37Rv (gyrA^D94K) (H37Rv (gyrA^D94K) [2]): 4 * µM | MIC (µM) H37Rv (rpoB^S450L) (H37Rv (rpoB^S450L) [3]): 4 * µM

C=C(C)[C@@H]1CC[C@]2(C)CC[C@]3(C)[C@H](CC[C@@H]4[C@@]5(C)CCCNC(C)(C)[C@@H]5CC[C@]43C)[C@@H]12 [Compound 2, azepano-lupeol]
MIC (H37Rv (katG^del)): 4 µM (≈ 1.7 µg/mL) | MIC (µM) H37Rv (gyrA^D94K) (H37Rv (gyrA^D94K) [4]): 4 µM (≈ 1.7 µg/mL) | MIC (µM) H37Rv (rpoB^S450L) (H37Rv (rpoB^S450L) [5]): 4 µM (≈ 1.7 µg/mL)

C=C(C)[C@@H]1CC[C@]2(CN)CC[C@]3(C)[C@H](CC[C@@H]4[C@@]5(C)CCCNC(C)(C)[C@@H]5CC[C@]43C)[C@@H]12 [Compound 3]
MIC (H37Rv (katG^del)): 4 µM (≈ 1.76 µg/mL) | MIC (µM) H37Rv (gyrA^D94K) (H37Rv (gyrA^D94K) [4]): 8 µM (≈ 3.53 µg/mL) | MIC (µM) H37Rv (rpoB^S450L) (H37Rv (rpoB^S450L) [5]): 4 µM (≈ 1.76 µg/mL)

C=C(C)[C@@H]1CC[C@]2(COC(=O)c3ccccc3C(=O)O)CC[C@]3(C)[C@H](CC[C@@H]4[C@@]5(C)CCCNC(C)(C)[C@@H]5CC[C@]43C)[C@@H]12 [Compound 4]
MIC (H37Rv (katG^del)): 8 µM (≈ 4.72 µg/mL) | MIC (µM) H37Rv (gyrA^D94K) (H37Rv (gyrA^D94K) [4]): 16 µM (≈ 9.44 µg/mL) | MIC (µM) H37Rv (rpoB^S450L) (H37Rv (rpoB^S450L) [5]): 8 µM (≈ 4.72 µg/mL)

C=C(C)[C@@H]1CC[C@]2(COC(=O)c3cccnc3)CC[C@]3(C)[C@H](CC[C@@H]4[C@@]5(C)CCCNC(C)(C)[C@@H]5CC[C@]43C)[C@@H]12 [Compound 5]
MIC (H37Rv (katG^del)): 4 µM (≈ 2.19 µg/mL) | MIC (µM) H37Rv (gyrA^D94K) (H37Rv (gyrA^D94K) [4]): 8 µM (≈ 4.37 µg/mL) | MIC (µM) H37Rv (rpoB^S450L) (H37Rv (rpoB^S450L) [5]): 8 µM (≈ 4.37 µg/mL)

C=C(C)[C@@H]1CC[C@]2(COS(=O)(=O)c3ccc(C)cc3)CC[C@]3(C)[C@H](CC[C@@H]4[C@@]5(C)CCCNC(C)(C)[C@@H]5CC[C@]43C)[C@@H]12 [Compound 6]
MIC (H37Rv (katG^del)): 4 µM (≈ 2.38 µg/mL) | MIC (µM) H37Rv (gyrA^D94K) (H37Rv (gyrA^D94K) [4]): 4 µM (≈ 2.38 µg/mL) | MIC (µM) H37Rv (rpoB^S450L) (H37Rv (rpoB^S450L) [5]): 4 µM (≈ 2.38 µg/mL)

C=C(C)[C@@H]1CC[C@]2(C=NNC(=O)c3ccncc3)CC[C@]3(C)[C@H](CC[C@@H]4[C@@]5(C)CCCNC(C)(C)[C@@H]5CC[C@]43C)[C@@H]12 [Compound 7]
MIC (H37Rv (katG^del)): 8 µM (≈ 4.47 µg/mL) | MIC (µM) H37Rv (gyrA^D94K) (H37Rv (gyrA^D94K) [4]): 0.5 µM (≈ 0.279 µg/mL) | MIC (µM) H37Rv (rpoB^S450L) (H37Rv (rpoB^S450L) [5]): 0.5 µM (≈ 0.279 µg/mL)

C=C(C)[C@@H]1CC[C@]2(C(=O)NC(CO)Cc3ccccc3)CC[C@]3(C)[C@H](CC[C@@H]4[C@@]5(C)CCCNC(C)(C)[C@@H]5CC[C@]43C)[C@@H]12 (some centres unmarked) [Compound 8]
MIC (H37Rv (katG^del)): 4 µM (≈ 2.36 µg/mL) | MIC (µM) H37Rv (gyrA^D94K) (H37Rv (gyrA^D94K) [4]): 4 µM (≈ 2.36 µg/mL) | MIC (µM) H37Rv (rpoB^S450L) (H37Rv (rpoB^S450L) [5]): 4 µM (≈ 2.36 µg/mL)

C=C(C)[C@@H]1CC[C@]2(C(=O)N3CCN(C)CC3)CC[C@]3(C)[C@H](CC[C@@H]4[C@@]5(C)CCCNC(C)(C)[C@@H]5CC[C@]43C)[C@@H]12 [Compound 9]
MIC (H37Rv (katG^del)): 1 µM (≈ 0.538 µg/mL) | MIC (µM) H37Rv (gyrA^D94K) (H37Rv (gyrA^D94K) [4]): 2 µM (≈ 1.08 µg/mL) | MIC (µM) H37Rv (rpoB^S450L) (H37Rv (rpoB^S450L) [5]): 2 µM (≈ 1.08 µg/mL)

C=C(C)[C@@H]1CC[C@]2(C(=O)NC3CCCCC3)CC[C@]3(C)[C@H](CC[C@@H]4[C@@]5(C)CCCNC(C)(C)[C@@H]5CC[C@]43C)[C@@H]12 [Compound 10]
MIC (H37Rv (katG^del)): 4 µM (≈ 2.15 µg/mL) | MIC (µM) H37Rv (gyrA^D94K) (H37Rv (gyrA^D94K) [4]): 4 µM (≈ 2.15 µg/mL) | MIC (µM) H37Rv (rpoB^S450L) (H37Rv (rpoB^S450L) [5]): 4 µM (≈ 2.15 µg/mL)

C=C(C)[C@@H]1CC[C@]2(COC(C)=O)CC[C@]3(C)[C@H](CC[C@@H]4[C@@]5(C)CCCN(C(C)=O)C(C)(C)[C@@H]5CC[C@]43C)[C@@H]12 [Compound 11]
MIC (µM) H37Rv (gyrA^D94K) (H37Rv (gyrA^D94K) [4]): 8 µM (≈ 4.21 µg/mL) | MIC (µM) H37Rv (rpoB^S450L) (H37Rv (rpoB^S450L) [5]): 4 µM (≈ 2.1 µg/mL)

C=C(C)[C@@H]1CC[C@]2(COC(C)=O)CC[C@]3(C)[C@H](CC[C@@H]4[C@@]5(C)CCCN(C(=O)c6cccnc6)C(C)(C)[C@@H]5CC[C@]43C)[C@@H]12 [Compound 12]
MIC (µM) H37Rv (gyrA^D94K) (H37Rv (gyrA^D94K) [4]): >32 µM | MIC (µM) H37Rv (rpoB^S450L) (H37Rv (rpoB^S450L) [5]): 32 µM (≈ 18.8 µg/mL)

CC(=O)[C@@H]1CC[C@]2(COS(=O)(=O)c3ccc(C)cc3)CC[C@]3(C)[C@H](CC[C@@H]4[C@@]5(C)CCCNC(C)(C)[C@@H]5CC[C@]43C)[C@@H]12 [Compound 13]
MIC (H37Rv (katG^del)): 8 µM (≈ 4.78 µg/mL) | MIC (µM) H37Rv (gyrA^D94K) (H37Rv (gyrA^D94K) [4]): 16 µM (≈ 9.57 µg/mL) | MIC (µM) H37Rv (rpoB^S450L) (H37Rv (rpoB^S450L) [5]): 8 µM (≈ 4.78 µg/mL)

C=C(CBr)[C@@H]1CC[C@]2(COC(C)=O)CC[C@]3(C)[C@H](CC[C@@H]4[C@@]5(C)CCCNC(C)(C)[C@@H]5CC[C@]43C)[C@@H]12 [Compound 14]
MIC (H37Rv (katG^del)): 16 µM (≈ 9 µg/mL) | MIC (µM) H37Rv (gyrA^D94K) (H37Rv (gyrA^D94K) [4]): >32 µM | MIC (µM) H37Rv (rpoB^S450L) (H37Rv (rpoB^S450L) [5]): >32 µM

C=C(CN=[N+]=[N-])[C@@H]1CC[C@]2(COC(C)=O)CC[C@]3(C)[C@H](CC[C@@H]4[C@@]5(C)CCCNC(C)(C)[C@@H]5CC[C@]43C)[C@@H]12 [Compound 15]
MIC (H37Rv (katG^del)): 32 µM (≈ 16.8 µg/mL) | MIC (µM) H37Rv (gyrA^D94K) (H37Rv (gyrA^D94K) [4]): >32 µM | MIC (µM) H37Rv (rpoB^S450L) (H37Rv (rpoB^S450L) [5]): >32 µM

CC1(C)CCC23CCC4(C)C(CCC5C6(C)CCCNC(C)(C)C6CCC54C)C2C1OC3 (centres unmarked) [Compound 17]
MIC (H37Rv (katG^del)): 8 µM (≈ 3.53 µg/mL) | MIC (µM) H37Rv (gyrA^D94K) (H37Rv (gyrA^D94K) [4]): 16 µM (≈ 7.07 µg/mL) | MIC (µM) H37Rv (rpoB^S450L) (H37Rv (rpoB^S450L) [5]): 8 µM (≈ 3.53 µg/mL)

CC(C)=C1CCC=C2CC[C@]3(C)[C@H](CC[C@@H]4[C@@]5(C)CCCNC(C)(C)[C@@H]5CC[C@]43C)[C@H]21 [Compound 18]
FoR (order of magnitude stated in text) [1]: 10^−6 | MIC (µM) H37Rv (gyrA^D94K) (H37Rv (gyrA^D94K) [4]): 8 µM (≈ 3.39 µg/mL) | MIC (µM) H37Rv (rpoB^S450L) (H37Rv (rpoB^S450L) [5]): 16 µM (≈ 6.78 µg/mL)

C#CCNC(=O)[C@]12CC[C@@H](C(=C)C)[C@@H]1[C@H]1CC[C@@H]3[C@@]4(C)CCCNC(C)(C)[C@@H]4CC[C@@]3(C)[C@]1(C)CC2 [Compound 20, 17-(Propargyl)-3-deoxo-3a-homo-3a-aza-lup-20(29)-en-carboxamide]
MIC (H37Rv (katG^del)): 4 µM (≈ 1.97 µg/mL) | MIC (µM) H37Rv (gyrA^D94K) (H37Rv (gyrA^D94K) [4]): 4 µM (≈ 1.97 µg/mL) | MIC (µM) H37Rv (rpoB^S450L) (H37Rv (rpoB^S450L) [5]): 8 µM (≈ 3.94 µg/mL)

NNC(=O)c1ccncc1 [Isoniazid, reference compound]
MIC (H37Rv (katG^del)): > 2 µM | FoR (order of magnitude stated in text) [1]: 10^−4 | MIC (µM) H37Rv (gyrA^D94K) (H37Rv (gyrA^D94K) [4]): 0.06 µM (≈ 0.00823 µg/mL) | MIC (µM) H37Rv (rpoB^S450L) (H37Rv (rpoB^S450L) [5]): 0.06 µM (≈ 0.00823 µg/mL)

COc1c(N2C[C@@H]3CCCN[C@@H]3C2)c(F)cc2c(=O)c(C(=O)O)cn(C3CC3)c12 [Moxifloxacin, reference compound]
MIC (H37Rv (katG^del)): 0.03 µM (≈ 0.012 µg/mL) | MIC (µM) H37Rv (gyrA^D94K) (H37Rv (gyrA^D94K) [4]): >2 µM | MIC (µM) H37Rv (rpoB^S450L) (H37Rv (rpoB^S450L) [5]): 0.03 µM (≈ 0.012 µg/mL)

O=[N+]([O-])c1cn2c(n1)OC[C@@H](OCc1ccc(OC(F)(F)F)cc1)C2 [Pretomanid, reference compound]
MIC (H37Rv (katG^del)): 0.06 µM (≈ 0.0216 µg/mL) | MIC (µM) H37Rv (gyrA^D94K) (H37Rv (gyrA^D94K) [4]): 0.125 µM (≈ 0.0449 µg/mL) | MIC (µM) H37Rv (rpoB^S450L) (H37Rv (rpoB^S450L) [5]): 0.06 µM (≈ 0.0216 µg/mL)

CO[C@H]1/C=C/O[C@@]2(C)Oc3c(C)c(O)c4c(O)c(c(/C=N/N5CCN(C)CC5)c(O)c4c3C2=O)NC(=O)/C(C)=C\C=C\[C@H](C)[C@H](O)[C@@H](C)[C@@H](O)[C@@H](C)[C@H](OC(C)=O)[C@@H]1C [Rifampin, reference compound]
MIC (H37Rv (katG^del)): ≤ 0.004 µM | MIC (µM) H37Rv (gyrA^D94K) (H37Rv (gyrA^D94K) [4]): ≤0.004 µM | MIC (µM) H37Rv (rpoB^S450L) (H37Rv (rpoB^S450L) [5]): >1 µM
